One compound from ChEMBL document CHEMBL1156872, “Synthesis and discovery of 2,3-dihydro-3,8-diphenylbenzo[1,4]oxazines as a novel class of potent cholesteryl ester transfer protein inhibitors” (Bioorg Med Chem Lett, 2010) can be followed below.

Data set [1] deals with T1, Cholesteryl ester transfer protein (Homo sapiens, UniProt P11597).
T1 sequence (P11597 whole entry): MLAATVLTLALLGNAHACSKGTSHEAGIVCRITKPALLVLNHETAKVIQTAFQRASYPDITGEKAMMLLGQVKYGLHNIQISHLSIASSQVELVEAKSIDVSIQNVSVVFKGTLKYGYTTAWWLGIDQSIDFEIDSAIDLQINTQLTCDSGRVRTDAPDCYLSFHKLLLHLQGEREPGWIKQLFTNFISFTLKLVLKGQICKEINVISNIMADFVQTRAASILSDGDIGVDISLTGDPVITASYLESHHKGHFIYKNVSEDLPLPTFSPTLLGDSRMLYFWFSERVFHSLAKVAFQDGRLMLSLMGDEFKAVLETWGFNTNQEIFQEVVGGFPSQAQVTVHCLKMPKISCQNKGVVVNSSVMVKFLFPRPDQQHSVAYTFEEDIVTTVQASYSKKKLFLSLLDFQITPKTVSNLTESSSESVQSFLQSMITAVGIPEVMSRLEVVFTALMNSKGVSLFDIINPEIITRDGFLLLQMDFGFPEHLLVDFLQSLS
The data set is described as follows: Inhibition of cholesteryl ester transfer protein in human plasma by [3H]CE HDL assay. In kind it is cell-free.

Data set [2] in a line: Aqueous solubility at pH 7.4. The format is physicochemical. The settings on record: aqueous medium.
Data set [3] is described as follows: Clearance in rat at 10 mg/kg, po and 2 mg/kg, iv. The format is ADME, organism-based. Particulars: in vivo.
The nature of data set [4]: Oral bioavailability in rat at 10 mg/kg. The format is ADME, organism-based. Particulars: in vivo.
In data set [5] the target is T2, Cytochrome P450 3A4 (Homo sapiens, UniProt P08684). The data set is described as follows: Inhibition of CYP3A4 tissue isoform in human liver microsomes. The format is ADME, Microsome. On the technique in general: Liver microsomes are a subcellular fraction often used to study metabolism.
T2 sequence (P08684 whole entry, canonical isoform): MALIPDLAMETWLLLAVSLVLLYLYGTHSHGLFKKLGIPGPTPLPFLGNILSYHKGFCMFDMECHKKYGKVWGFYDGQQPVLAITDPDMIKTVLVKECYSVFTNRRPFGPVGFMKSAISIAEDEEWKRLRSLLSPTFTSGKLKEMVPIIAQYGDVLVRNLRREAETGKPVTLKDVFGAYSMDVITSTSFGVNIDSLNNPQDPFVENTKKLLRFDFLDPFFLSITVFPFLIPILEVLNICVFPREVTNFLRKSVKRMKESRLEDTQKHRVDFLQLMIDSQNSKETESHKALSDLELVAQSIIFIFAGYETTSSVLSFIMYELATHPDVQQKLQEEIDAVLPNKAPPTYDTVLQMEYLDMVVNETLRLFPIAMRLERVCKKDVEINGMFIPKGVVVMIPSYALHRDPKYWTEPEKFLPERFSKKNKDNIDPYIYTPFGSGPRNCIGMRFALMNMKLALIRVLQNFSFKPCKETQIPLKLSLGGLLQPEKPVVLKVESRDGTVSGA
The subject of data set [6] is Mus musculus. The data set is described as follows: Increase in HDL cholesterol level in normal chow diet fed male CETP transgenic mouse at 3 mg/kg, po after 5 days. In kind it is functional.
Data set [7] is described as follows: Aqueous solubility at pH 2.0. The format is physicochemical. The settings on record: aqueous medium.
In data set [8] the test system is Mus musculus. The experiment in a line: Increase in HDL cholesterol level in normal chow diet fed female CETP transgenic mouse at 10 mg/kg, po after 5 days. The format is functional.
Data set [9] concerns Hamster. The experiment in a line: Increase in HDL cholesterol level in high fat diet fed hamster at 30 mg/kg, po after 5 days. The format is functional, Cricetinae.
The nature of data set [10]: Tmax in rat at 10 mg/kg, po and 2 mg/kg, iv. In kind it is ADME, organism-based. Particulars: in vivo.
Data set [11] has as its target Cytochrome P450 2D6 (Homo sapiens, UniProt P10635). The experiment in a line: Inhibition of CYP2D6 in human liver microsomes. In kind it is ADME, Microsome.
In data set [12] the test system is Mus musculus. The data set is described as follows: Increase in HDL cholesterol level in normal chow diet fed female CETP transgenic mouse at 30 mg/kg, po after 5 days. In kind it is functional.
Data set [13] is described as follows: Half life in human liver microsomes. In kind it is ADME, Microsome.
Data set [14] concerns Mus musculus. The experiment in a line: Increase in HDL cholesterol level in normal chow diet fed male CETP transgenic mouse at 30 mg/kg, po after 5 days. In kind it is functional.
A short description of data set [15]: Volume of distribution at steady state in rat at 10 mg/kg, po and 2 mg/kg, iv. In kind it is ADME, organism-based. The settings on record: in vivo, read-out: Vdss.
Data set [16] addresses Cytochrome P450 2C19 (Homo sapiens, UniProt P33261). The experiment in a line: Inhibition of CYP2C19 in human liver microsomes. In kind it is ADME, Microsome.
Data set [17] addresses T2, Cytochrome P450 3A4. The experiment in a line: Inhibition of CYP3A4 […] isoform in human liver microsomes. In kind it is ADME, Microsome.
Data set [18] has as its system Mus musculus. The experiment in a line: Increase in HDL cholesterol level in normal chow diet fed female CETP transgenic mouse at 3 mg/kg, po after 5 days. The format is functional.
The test system of data set [19] is Mus musculus. The experiment in a line: Increase in HDL cholesterol level in normal chow diet fed male CETP transgenic mouse at 10 mg/kg, po after 5 days. The format is functional.
For data set [20], the system named is Hamster. The data set is described as follows: Increase in HDL cholesterol level in high fat diet fed hamster at 10 mg/kg, po after 5 days. In kind it is functional, Cricetinae.
Data set [21] is described as follows: AUC in rat at 10 mg/kg, po and 2 mg/kg, iv. In kind it is ADME, organism-based. Particulars: plasma.
The target of data set [22] is Cytochrome P450 2C9 (Homo sapiens, UniProt P11712). The data set is described as follows: Inhibition of CYP2C9 in human liver microsomes. In kind it is ADME, Microsome.
Sequence of Cytochrome P450 2C9 (P11712 whole entry): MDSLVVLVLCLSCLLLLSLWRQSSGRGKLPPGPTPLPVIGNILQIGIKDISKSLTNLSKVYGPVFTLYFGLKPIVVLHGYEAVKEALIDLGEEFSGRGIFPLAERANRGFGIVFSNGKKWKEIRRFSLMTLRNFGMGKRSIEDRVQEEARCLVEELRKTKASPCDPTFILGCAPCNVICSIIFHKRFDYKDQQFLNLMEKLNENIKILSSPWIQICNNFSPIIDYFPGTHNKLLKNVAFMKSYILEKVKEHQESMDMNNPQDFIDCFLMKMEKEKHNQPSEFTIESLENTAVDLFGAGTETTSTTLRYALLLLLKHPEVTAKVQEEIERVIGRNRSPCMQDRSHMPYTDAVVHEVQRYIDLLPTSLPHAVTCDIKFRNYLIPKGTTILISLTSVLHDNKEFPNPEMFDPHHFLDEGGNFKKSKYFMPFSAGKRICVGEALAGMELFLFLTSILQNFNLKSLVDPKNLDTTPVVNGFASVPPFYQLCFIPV
The target of data set [23] is T3, Cytochrome P450 1A2 (Homo sapiens, UniProt P05177).
T3 sequence (P05177 whole entry): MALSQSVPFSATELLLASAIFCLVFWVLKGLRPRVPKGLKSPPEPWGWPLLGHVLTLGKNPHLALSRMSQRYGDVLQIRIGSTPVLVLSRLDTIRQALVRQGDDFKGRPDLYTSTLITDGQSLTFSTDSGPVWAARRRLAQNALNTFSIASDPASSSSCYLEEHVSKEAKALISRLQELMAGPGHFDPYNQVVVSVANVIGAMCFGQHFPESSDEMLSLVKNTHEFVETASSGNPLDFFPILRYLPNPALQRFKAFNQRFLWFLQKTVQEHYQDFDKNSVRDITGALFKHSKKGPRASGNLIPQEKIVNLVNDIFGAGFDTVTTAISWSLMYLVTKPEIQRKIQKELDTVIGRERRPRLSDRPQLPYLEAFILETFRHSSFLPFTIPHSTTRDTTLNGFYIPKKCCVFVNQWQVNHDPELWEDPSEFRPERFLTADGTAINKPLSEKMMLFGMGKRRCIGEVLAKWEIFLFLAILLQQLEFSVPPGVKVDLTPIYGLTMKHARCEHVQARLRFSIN
The experiment in a line: Inhibition of CYP1A2 in human liver microsomes. The format is ADME, Microsome.

Data set [24] has as its target T4, Cholesteryl ester transfer protein (Homo sapiens) (UniProt P11597).
T4 sequence (whole entry): T1 sequence (P11597 whole entry)
The data set is described as follows: Inhibition of human cholesteryl ester transfer protein at 1 uM by scintillation proximity assay. A general note: In a scintillation proximity assay essentially only radioactivity close to the scintillant gives light.

Converted amounts (≈) assume the structure as drawn.

Sequence of Cytochrome P450 2D6 (P10635 whole entry): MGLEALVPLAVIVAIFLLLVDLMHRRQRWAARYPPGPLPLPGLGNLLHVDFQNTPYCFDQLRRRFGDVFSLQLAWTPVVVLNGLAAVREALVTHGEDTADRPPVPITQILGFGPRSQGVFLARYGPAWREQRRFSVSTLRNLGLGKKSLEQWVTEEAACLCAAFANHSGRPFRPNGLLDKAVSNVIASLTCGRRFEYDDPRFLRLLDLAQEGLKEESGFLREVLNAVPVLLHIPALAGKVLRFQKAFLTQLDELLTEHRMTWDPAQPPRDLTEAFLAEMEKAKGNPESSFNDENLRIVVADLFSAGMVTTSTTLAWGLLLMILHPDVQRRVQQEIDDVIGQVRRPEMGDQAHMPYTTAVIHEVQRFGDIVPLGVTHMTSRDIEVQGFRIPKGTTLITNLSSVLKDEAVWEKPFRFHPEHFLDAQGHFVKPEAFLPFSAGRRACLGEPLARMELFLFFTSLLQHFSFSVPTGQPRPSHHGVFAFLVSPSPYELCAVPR
Sequence of Cytochrome P450 2C19 (P33261 whole entry, canonical isoform): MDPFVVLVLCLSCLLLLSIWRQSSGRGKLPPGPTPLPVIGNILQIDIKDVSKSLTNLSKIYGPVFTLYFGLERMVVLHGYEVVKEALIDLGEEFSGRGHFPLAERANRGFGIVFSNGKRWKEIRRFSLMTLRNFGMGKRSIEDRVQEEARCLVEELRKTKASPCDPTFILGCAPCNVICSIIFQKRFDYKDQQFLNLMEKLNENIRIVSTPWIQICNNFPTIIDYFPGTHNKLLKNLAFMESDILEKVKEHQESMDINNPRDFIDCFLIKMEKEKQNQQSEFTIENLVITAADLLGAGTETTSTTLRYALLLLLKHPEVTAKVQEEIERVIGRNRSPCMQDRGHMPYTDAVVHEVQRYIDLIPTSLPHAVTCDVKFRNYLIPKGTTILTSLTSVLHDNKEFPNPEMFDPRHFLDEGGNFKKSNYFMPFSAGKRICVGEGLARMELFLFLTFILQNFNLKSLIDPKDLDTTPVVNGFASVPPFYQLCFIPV

For orientation: IC50 means the point on the concentration scale where inhibition reaches its midpoint. A higher IC50 goes with lower potency. Broadly, the solubility is the dissolved amount per volume that the medium holds. Read a high solubility as a readily soluble substance. The bioavailability is dose-corrected exposure relative to a reference, in per cent. A lower bioavailability goes with little systemic uptake. Broadly, the Tmax is the time from dosing to the highest level. Usually half-life stands for the time needed for the level to fall by half in the phase considered. Low readings indicate fast loss, high ones slow loss. A word on the AUC: it is the area under the concentration-time curve, a measure of exposure. Lower therefore signals less exposure. Broadly, the inhibition is the change of the read-out against control, counted positive when it falls. A higher inhibition goes with a strong effect. On to `O[C@@H](CN1c2cccc(-c3cccc(OC(F)(F)F)c3)c2OC[C@@H]1c1cccc(OC(F)(F)C(F)F)c1)C(F)(F)F`, for which the half-maximal inhibitory concentration (IC50) in data set [1] was 1000 nM; in data set [5], above 100 µM; in [11], above 100 µM; in [16], above 100 µM; in data set [17], above 100 µM; in [22], above 100 µM. The same compound showed an IC50 in data set [23] above 100 µM. Also, the solubility amounted to 2.7 µg/mL (≈ 4.5 µM) in data set [2] and 11 µg/mL (≈ 18.4 µM) in [7]. For the same compound, in data set [3], the clearance came out at 4.6 mL/min/kg. For the same compound, the bioavailability in data set [4] was found to be 53%. Also, the Activity in data set [6] worked out at 11%; in data set [8], 8%; in [9], 16%; in [12], 24%; in data set [14], 28%; in [18], 4%. Further, the figures for the Activity in data set [19] and in data set [20] were 10% and 9%, respectively. In addition, the Tmax in data set [10] was 11.5 h. Moreover, in [13], the half-life is 62 min. In addition, the Vd in [15] is 0.73 L/kg. For the same compound, the exposure (AUC) in [21] came out at 19800 ng·h/mL. The inhibition in data set [24] came out at 91%.
